# ± gives the expanded uncertainty stated by the source.
# Test: wn = mass fraction of the nth substance listed
# Settings: 348 K, 101 kPa, Liquid, Pycnometric method
compound,measurement,setting,value
[Cl-].[K+] [potassium chloride] + O,mass density,w1 = 0.332,1204 ± 1.6 kg/m3
[Cl-].[Na+] [sodium chloride] + O,mass density,w1 = 0.2745,1183 ± 1.4 kg/m3
[Cl-].[Cl-].[Sr+2] [strontium chloride] + O,mass density,w1 = 0.4775,1620.5 ± 21 kg/m3

# Reference: the NIST ThermoML archive (doi:10.1021/acs.jced.5b00094)
